The text below walks through data of US7465753B2, “Glycoside-containing liposome” (Otsuka Pharmaceutical Co., Ltd., priority 2003, dated 2008).

The structures appear in SMILES notation. Where two headings read alike, the source gives them in different places.

Assay [1] concerns colon26 wild. Kind of assay: Cell proliferation inhibitory effect, MTT assay, colon26 wild. Conditions: glycoside employed alone, 37° C. for three days. It counts as cell-based. The procedure: A cultured cancer cell line (colon26 wild) was inoculated into a 96-well plate (1×10^4 cells/100 μL/well), and subsequently a cholestanol glycoside (GlcNAcβ1,4GalChol, Fucα1,3GalChol, GalβChol, or Chol) or each type of the cholestanol glycoside liposomes formed in Example 1 was added to the 96-well plate, followed by incubation at 37° C. for three days. Thereafter, the MTT assay was performed, and the number of live cells was determined. The cell proliferation inhibition rate was obtained by use of the following formula. Cell proliferation inhibition rate(CPI rate)(%)=(1−OD of treated cells/OD of non-treated cells)×100
A general note: Formazan colour is commonly taken as a measure of viable cells.

Assay [2] relates to colon26 wild. Conditions: glycoside alone; conventionally shown; cited from earlier work.

For `CC(C)CCC[C@@H](C)[C@H]1CC[C@H]2[C@@H]3CC[C@H]4C[C@@H](O[C@@H]5O[C@H](CO)[C@H](O)[C@H](O[C@@H]6O[C@@H](C)[C@@H](O)[C@@H](O)[C@@H]6O)[C@H]5O)CC[C@]4(C)[C@H]3CC[C@]12C` [Fucα1,3GalChol, 3-β-cholestanyl 3-O-(α-L-fucopyranosyl)-β-D-galactopyranoside], the “cell proliferation inhibitory effect” value in the assay on colon26 wild [1] is on record as “scarcely exhibits cell proliferation inhibitory effect”.
With `CC(=O)N[C@H]1[C@H](O[C@@H]2[C@H](O)[C@@H](O)[C@H](O[C@H]3CC[C@@]4(C)[C@@H](CC[C@@H]5[C@@H]4CC[C@]4(C)[C@@H]([C@H](C)CCCC(C)C)CC[C@@H]54)C3)O[C@@H]2CO)O[C@H](CO)[C@@H](O)[C@@H]1O` [GlcNAcβ1,4GalChol, 3-β-cholestanyl 4-O-(2-acetamido-2-deoxy-β-D-glucopyranosyl)-β-D-galactopyranoside], the “cell proliferation inhibitory effect” value in the assay on colon26 wild [2] is “has conventionally been shown to have cell proliferation inhibitory effect”.
